From patent US20250332176A1, “TREATMENT FOR FIBROSIS AND INHIBITION OF FIBROSIS” (GALMED RESEARCH AND DEVELOPMENT LTD, priority 2022, published 2025)

Tested on: Male C57BL/12 mice
Assay: Bleomycin (BLM)-induced pulmonary fibrosis model
Type: in vivo
Conditions: bleomycin 1.5 U/kg intratracheal, prophylactic, day 0→21
Protocol: The following model was employed: • Male C57BL/12 mice,22-26 g • Induction by administration of Bleomycin (1.5 U/kg), intratracheal • Ref. Comp.: Pirfenidone, 100 mg/kg, p.o., BID • Treatment Mode: Prophylactic (from day 0→21)
Pulmonary fibrosis was induced by bleomycin (BLM) and treated with aramchol (meglumine salt). As a reference, results for the known anti-idiophatic pulmonary fibrosis agent pirfenidone are also presented, in FIGS. 26A-26B, where hydroxyproline was used as biomarker for fibrosis (hydroxyproline use as idiophatic pulmonary fibrosis biomarker is disclosed in “Lung fibrosis is ameliorated by pirfenidone fed in diet after the second dose in a three-dose bleomycin-hamster model”, Iyer, Swarnalatha N.; Margolin, S. B.; Hyde, D. M.; Giri, S. N.; Experimental Lung Research (1998), 24(1), 119-132; and “Simple determination of L-hydroxyproline in idiopathic pulmonary fibrosis lung tissues of rats using non-extractive high-performance liquid chromatography coupled with fluorescence detection after pre-column derivatization with novel synthetic 9-acetylimidazol-carbazole”, Ren, Y.; Zhao, J.; Shi, Y.; Chen, C.; Chen, X.; Lv, C.; Journal of Pharmaceutical and Biomedical Analysis 2017, 142, 1-6).

Row | SMILES | histopathology of the lungs (H&E, COL1A1, aSMA; FIG. 27) | Ashcroft score, COL1A1 and aSMA quantification (FIGS. 28A-28E) (compared to pirfenidone)
1 | Cc1ccc(=O)n(-c2ccccc2)c1 [pirfenidone, reference compound] | much more similar to the one without the fibrosis | 
2 | CCCCCCCCCCCCCCCCCCCC(=O)N[C@H]1CC[C@@]2(C)[C@@H](C1)C[C@@H](O)[C@@H]1[C@@H]2C[C@H](O)[C@]2(C)[C@@H]([C@H](C)CCC(=O)O)CC[C@@H]12 [aramchol] | very similar to the one of pirfenidone | treats the fibrosis in better (higher) extent and has more significant effect
